# Assay results from PubChem BioAssay AID330 (DTP/NCI, 2004).
# Where “and” joins values, the source holds several entries; their conditions need not be identical. Equal entries are not always repeated. Toxic doses and inconclusive results are not listed.
# Tested on: P388 leukemia ip, CD2F1 mice, survival T/C
# Test: NCI In Vivo Anticancer Drug Screen. Data for tumor model P388 Leukemia (intraperitoneal) in CD2F1 (CDF1) mice
# Conditions: endpoint: median survival time, higher = longer survival
# In short: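 Mice carrying the transplanted tumor received test compound or vehicle. Survival was recorded in each group, and the value is the treated-group measurement divided by that of the vehicle-treated control group.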
# [1] = dose: 60.0 mg/kg/injection, schedule: Q01DX005 (ip), vehicle: saline with Tween-80
# [2] = dose: 120.0 mg/kg/injection, schedule: Q01DX005 (ip), vehicle: saline with Tween-80
# [3] = dose: 50.0 mg/kg/injection, schedule: Q01DX005 (ip), vehicle: saline with Tween-80
# [4] = dose: 100.0 mg/kg/injection, schedule: Q01DX005 (ip), vehicle: saline with Tween-80
# [5] = dose: 200.0 mg/kg/injection, schedule: Q01DX005 (ip), vehicle: saline with Tween-80
# [6] = dose: 50.0 mg/kg/injection, schedule: Q01DX009 (ip), vehicle: Klucel (hydroxypropylcellulose) (HPC)
# [7] = dose: 100.0 mg/kg/injection, schedule: Q01DX009 (ip), vehicle: Klucel (hydroxypropylcellulose) (HPC)
# [8] = dose: 200.0 mg/kg/injection, schedule: Q01DX009 (ip), vehicle: Klucel (hydroxypropylcellulose) (HPC)
compound,measurement,setting,value
COC1CC(C)(OC(C)=O)Cc2cc3c(c(OC(C)=O)c21)C(=O)c1c(OC(C)=O)cc2c(c1C3=O)OC1OC2(C)C(OC(C)=O)C(N(C)C)C1OC(C)=O (configuration not stated),T/C,"dose: 1.25 mg/kg/injection, schedule: Q01DX009 (ip), vehicle: other",102 % of control
same,T/C,"dose: 2.5 mg/kg/injection, schedule: Q01DX009 (ip), vehicle: other",112 % of control and 106 % of control
same,T/C,"dose: 5.0 mg/kg/injection, schedule: Q01DX009 (ip), vehicle: other",105 % of control and 101 % of control
same,T/C,"dose: 10.0 mg/kg/injection, schedule: Q01DX009 (ip), vehicle: other",114 % of control and 115 % of control
same,T/C,"dose: 20.0 mg/kg/injection, schedule: Q01DX009 (ip), vehicle: other",121 % of control
Cc1c(C#N)c2n(c1C)CC(=O)N2,T/C,[1],87 % of control
same,T/C,[2],95 % of control
NC(=O)/C=C/C(=O)c1c(Cl)cccc1Cl,T/C,"dose: 1.56 mg/kg/injection, schedule: Q01DX009 (ip), vehicle: saline with Tween-80",113 % of control
same,T/C,"dose: 3.13 mg/kg/injection, schedule: Q01DX009 (ip), vehicle: saline with Tween-80",111 % of control
same,T/C,"dose: 6.25 mg/kg/injection, schedule: Q01DX009 (ip), vehicle: saline with Tween-80",94 % of control
same,T/C,"dose: 12.5 mg/kg/injection, schedule: Q01DX009 (ip), vehicle: saline with Tween-80",86 % of control and 87 % of control
CC(C)n1cnc2c(=S)nc[nH]c21,T/C,"dose: 25.0 mg/kg/injection, schedule: Q01DX009 (ip), vehicle: saline with Tween-80",90 % of control
same,T/C,"dose: 50.0 mg/kg/injection, schedule: Q01DX009 (ip), vehicle: saline with Tween-80",100 % of control
same,T/C,"dose: 100.0 mg/kg/injection, schedule: Q01DX009 (ip), vehicle: saline with Tween-80",109 % of control
O=c1[nH]cnc2nc3c(nc12)CCc1ccccc1-3,T/C,[1],100 % of control
same,T/C,[2],102 % of control
same,T/C,"dose: 240.0 mg/kg/injection, schedule: Q01DX005 (ip), vehicle: saline with Tween-80",97 % of control
Nc1nc2cc3[nH]ncc3cc2c(=O)[nH]1,T/C,"dose: 12.5 mg/kg/injection, schedule: Q01DX005 (ip), vehicle: saline with Tween-80",98 % of control
same,T/C,"dose: 25.0 mg/kg/injection, schedule: Q01DX005 (ip), vehicle: saline with Tween-80",91 % of control
same,T/C,[3],94 % of control and 97 % of control
same,T/C,[4],101 % of control
same,T/C,[5],102 % of control
O=C(Nc1ccc([N+](=O)[O-])cc1)C1C(=O)C(=O)N(c2ccc([N+](=O)[O-])cc2)C1=O (configuration not stated),T/C,[6],107 % of control
same,T/C,[7],100 % of control
same,T/C,[8],104 % of control
C/C(N)=C/C(=O)Nc1ccccc1,T/C,"dose: 25.0 mg/kg/injection, schedule: Q01DX009 (ip), vehicle: Klucel (hydroxypropylcellulose) (HPC)",109 % of control
same,T/C,[6],109 % of control
same,T/C,[7],97 % of control
same,T/C,[8],108 % of control
CN(C)C(=O)N1CCc2ccc([N+](=O)[O-])cc21,T/C,[6],104 % of control
same,T/C,[7],100 % of control
same,T/C,[8],98 % of control
C[C@]12C=CC(=O)NC[C@@H]1CC[C@@H]1[C@@H]2CC[C@]2(C)[C@@H](OC(=O)COc3ccc(N(CCCl)CCCl)cc3)CC[C@@H]12,T/C,"dose: 7.5 mg/kg/injection, schedule: Q01DX005 (ip), vehicle: saline with Tween-80",120 % of control
same,T/C,"dose: 15.0 mg/kg/injection, schedule: Q01DX005 (ip), vehicle: saline with Tween-80",120 % of control
same,T/C,"dose: 30.0 mg/kg/injection, schedule: Q01DX005 (ip), vehicle: saline with Tween-80",151 % of control
same,T/C,[1],198 % of control and 255 % of control
same,T/C,[2],157 % of control
CC(Cc1ccccc1)NC(=O)c1ccncc1 (configuration not stated),T/C,[3],103 % of control
same,T/C,[4],102 % of control
same,T/C,[5],100 % of control
Cc1cccc(N=Nc2c(C)nn(C(=S)S)c2C)c1C,T/C,"dose: 100.0 mg/kg/injection, schedule: Q04DX002 (ip), vehicle: saline with Tween-80",100 % of control
same,T/C,"dose: 200.0 mg/kg/injection, schedule: Q04DX002 (ip), vehicle: saline with Tween-80",99 % of control
same,T/C,"dose: 400.0 mg/kg/injection, schedule: Q04DX002 (ip), vehicle: saline with Tween-80",98 % of control
Nc1nc(N)nc(NCCSS(=O)(=O)O)n1,T/C,[6],94 % of control
same,T/C,[7],94 % of control
same,T/C,[8],91 % of control
CCC(c1ccc(OCCS(=O)(=O)Oc2ccc(C)cc2)cc1)C(CC)c1ccc(OCCS(=O)(=O)Oc2ccc(C)cc2)cc1 (configuration not stated),T/C,"dose: 50.0 mg/kg/injection, schedule: Q01DX009 (ip), vehicle: saline",106 % of control
same,T/C,"dose: 100.0 mg/kg/injection, schedule: Q01DX009 (ip), vehicle: saline",87 % of control
same,T/C,"dose: 200.0 mg/kg/injection, schedule: Q01DX009 (ip), vehicle: saline",95 % of control
O=C(O)CCC1(C(=O)O)NCCc2c1[nH]c1ccccc21 (configuration not stated),T/C,"dose: 25.0 mg/kg/injection, schedule: Q01DX009 (ip), vehicle: suspension in saline",95 % of control
same,T/C,"dose: 50.0 mg/kg/injection, schedule: Q01DX009 (ip), vehicle: suspension in saline",99 % of control
same,T/C,"dose: 100.0 mg/kg/injection, schedule: Q01DX009 (ip), vehicle: suspension in saline",98 % of control
